Assay results from ChEMBL document CHEMBL1287757, “Straightforward synthesis of triazoloacyclonucleotide phosphonates as potential HCV inhibitors” (Bioorg Med Chem Lett, 2010).
The source made the active and inactive calls. The calls are words filed in the database; no cut-off is given here.

Assays:
[1] = Selectivity ratio, ratio of CC50 for Huh5.2 cells to IC50 for HCV infected in Huh5.2 cells; format: cell-based; conditions: human, Huh5.2 cells (CC50) and HCV-infected Huh5.2 cells (IC50)
[2] = tested on: Human immunodeficiency virus; assay: Antiviral activity against HIV assessed as inhibition of viral replication; format: functional, organism-based
[3] = Cytotoxicity against human HuH5.2 cells; format: cell-based, Huh-5-2
Hepatitis C virus [4] = assay: Antiviral activity against HCV infected in Huh5.2 cells assessed as inhibition of viral replication by luciferase reporter gene assay; format: functional, organism-based, Hepacivirus hominis; conditions: Huh-5-2
Hepatitis C virus [5] = assay: Antiviral activity against HCV infected in Huh5.2 cells assessed as concentration required to inhibit viral replication without causing an antimetabolic effect; format: functional, Hepacivirus hominis

IC50 (Hepatitis C virus [4]) [µM] | SMILES | selectivity ratio [1] | Activity [2] | CC50 [3] [µM] | Imax (Hepatitis C virus [5]) [%]
> 35 | Nc1ncnc2c1ncn2Cc1cn(CCP(=O)(O)O)nn1 | < 1 | inactive | 35 | –
26 | Cc1cn(Cc2cn(CP(=O)(O)O)nn2)c(=O)[nH]c1=O | > 13 | inactive | > 300 | –
16 | Nc1ncnc2c1ncn2Cc1cn(CP(=O)(O)O)nn1 | > 20 | inactive | > 300 | 80.65
29 | O=c1ccn(Cc2cn(CP(=O)(O)O)nn2)c(=O)[nH]1 | 4.42 | inactive | 131 | –
20 | Cc1cn(Cc2cn(CCP(=O)(O)O)nn2)c(=O)[nH]c1=O | > 15 | inactive | > 300 | 79.28
16 | O=c1ccn(Cc2cn(CCP(=O)(O)O)nn2)c(=O)[nH]1 | > 20 | inactive | > 300 | 75.47
